Data: patent publication US12371428B2 (Exelixis, Inc., priority 2019, dated 2025)
pIC50: −log10 of the molar value. Where a name gives a salt, the structure may show the parent alone.

Tests used:
[1] = biological target: Mer (phospho-Mer, MERTK-transfected 293A cells) (Homo sapiens (Human), UniProt Q12866); test: Mer autophosphorylation ELISA in transient transfected 293A cells (Example H); format: cell-based; conditions: cellular activity; Mer autophosphorylation ELISA in transient transfected 293A cells
How it was run: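 IC50 from 4-parameter logistic fit of phospho-Mer levels, quantified by ELISA against a phospho-Mer standard in lysates of MERTK-transfected 293A cells. Cells exposed 1 h to 8-point serial dilutions, serum-free, 0.3% DMSO; controls: DMSO (100%) and reference inhibitor (0%).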

[2] = biological target: Human KDR (residues 790-1356) (Homo sapiens (Human), UniProt P35968); test: Human KDR kinase assay, HTRF KinEase (Example B-2); format: biochemical; conditions: protocol of Example B-2 (other compounds)
How it was run: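 Ten compound concentrations (3% DMSO final) were pre-plated, then KDR (790-1356) with biotinylated peptide in Mg/Mn/DTT buffer was added; ATP at Km (4.0 μM) started a 40 min room-temperature reaction. Detection used Eu-TK antibody and SA-XL665 in EDTA buffer; activity normalized to DMSO and reference inhibitor, IC50 by logistic fit.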

[3] = biological target: Met (phospho-Met, HGF-stimulated PC-3 prostate cancer cells) (Homo sapiens (Human), UniProt P08581); test: Met autophosphorylation ELISA in PC-3 cells (Example F); format: cell-based; conditions: cellular activity; Met autophosphorylation ELISA in PC-3 cells; read-out: c-Met IC50
How it was run: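 PC-3 cells, serum-starved 3 h, were treated with compounds (8-point dose curve, 0.3% DMSO final) for 1 h, then stimulated with 100 ng/mL recombinant human HGF for 10 min. Lysate phospho-Met (panTyr) was quantified by sandwich ELISA; IC50 from 4-parameter logistic fit.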

Chain of Met (phospho-Met, HGF-stimulated PC-3 prostate cancer cells) (P08581 25-1390): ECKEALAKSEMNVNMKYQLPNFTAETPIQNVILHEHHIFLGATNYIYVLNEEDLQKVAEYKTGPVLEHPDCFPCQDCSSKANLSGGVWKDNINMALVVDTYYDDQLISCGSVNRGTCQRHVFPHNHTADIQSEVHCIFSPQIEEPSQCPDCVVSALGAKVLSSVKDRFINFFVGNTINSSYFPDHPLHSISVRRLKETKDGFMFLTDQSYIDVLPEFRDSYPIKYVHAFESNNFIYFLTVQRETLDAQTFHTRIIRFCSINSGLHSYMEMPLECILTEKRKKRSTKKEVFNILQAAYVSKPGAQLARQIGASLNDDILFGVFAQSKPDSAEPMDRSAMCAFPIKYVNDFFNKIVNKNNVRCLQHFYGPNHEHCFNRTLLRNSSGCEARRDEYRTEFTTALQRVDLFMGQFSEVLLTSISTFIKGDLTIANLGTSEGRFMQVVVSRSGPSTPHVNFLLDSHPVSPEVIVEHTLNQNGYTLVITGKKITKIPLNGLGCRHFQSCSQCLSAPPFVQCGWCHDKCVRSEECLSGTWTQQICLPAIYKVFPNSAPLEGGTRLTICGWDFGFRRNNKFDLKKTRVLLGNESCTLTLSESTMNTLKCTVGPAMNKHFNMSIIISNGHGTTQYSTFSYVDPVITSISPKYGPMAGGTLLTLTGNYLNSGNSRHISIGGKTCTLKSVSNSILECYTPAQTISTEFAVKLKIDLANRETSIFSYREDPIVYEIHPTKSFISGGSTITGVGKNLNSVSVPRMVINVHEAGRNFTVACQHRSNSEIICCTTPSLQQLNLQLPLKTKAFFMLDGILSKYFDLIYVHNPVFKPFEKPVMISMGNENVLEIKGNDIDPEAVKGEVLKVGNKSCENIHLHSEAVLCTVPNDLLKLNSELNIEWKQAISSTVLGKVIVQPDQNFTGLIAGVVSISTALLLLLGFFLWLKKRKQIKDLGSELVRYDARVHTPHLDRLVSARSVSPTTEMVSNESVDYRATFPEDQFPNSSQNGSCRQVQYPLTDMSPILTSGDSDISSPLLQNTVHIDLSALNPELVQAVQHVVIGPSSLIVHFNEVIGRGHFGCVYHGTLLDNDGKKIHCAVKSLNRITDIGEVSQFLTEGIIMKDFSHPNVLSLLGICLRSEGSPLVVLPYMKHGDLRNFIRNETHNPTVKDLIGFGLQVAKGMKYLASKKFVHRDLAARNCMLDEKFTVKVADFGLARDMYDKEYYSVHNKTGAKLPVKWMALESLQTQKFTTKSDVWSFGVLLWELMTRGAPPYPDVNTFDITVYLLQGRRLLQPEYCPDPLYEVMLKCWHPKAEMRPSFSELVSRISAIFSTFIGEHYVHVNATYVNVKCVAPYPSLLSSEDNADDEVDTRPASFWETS
Chain of Human KDR (residues 790-1356) (P35968 790-1356): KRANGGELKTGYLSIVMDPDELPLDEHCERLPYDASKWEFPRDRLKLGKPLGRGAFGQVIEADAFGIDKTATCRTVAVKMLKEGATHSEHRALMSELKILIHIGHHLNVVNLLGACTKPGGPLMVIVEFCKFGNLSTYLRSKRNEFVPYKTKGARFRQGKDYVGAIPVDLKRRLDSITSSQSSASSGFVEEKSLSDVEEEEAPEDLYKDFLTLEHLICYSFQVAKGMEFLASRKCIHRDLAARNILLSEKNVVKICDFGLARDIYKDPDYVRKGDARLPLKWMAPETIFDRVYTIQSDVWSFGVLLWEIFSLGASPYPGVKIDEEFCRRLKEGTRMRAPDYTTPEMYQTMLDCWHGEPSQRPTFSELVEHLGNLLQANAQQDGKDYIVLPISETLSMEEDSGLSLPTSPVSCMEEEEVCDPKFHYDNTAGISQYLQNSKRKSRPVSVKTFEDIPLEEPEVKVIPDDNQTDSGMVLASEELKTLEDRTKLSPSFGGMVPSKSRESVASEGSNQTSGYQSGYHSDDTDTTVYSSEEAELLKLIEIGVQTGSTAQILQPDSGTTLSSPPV
Chain of Mer (phospho-Mer, MERTK-transfected 293A cells) (Q12866 21-999): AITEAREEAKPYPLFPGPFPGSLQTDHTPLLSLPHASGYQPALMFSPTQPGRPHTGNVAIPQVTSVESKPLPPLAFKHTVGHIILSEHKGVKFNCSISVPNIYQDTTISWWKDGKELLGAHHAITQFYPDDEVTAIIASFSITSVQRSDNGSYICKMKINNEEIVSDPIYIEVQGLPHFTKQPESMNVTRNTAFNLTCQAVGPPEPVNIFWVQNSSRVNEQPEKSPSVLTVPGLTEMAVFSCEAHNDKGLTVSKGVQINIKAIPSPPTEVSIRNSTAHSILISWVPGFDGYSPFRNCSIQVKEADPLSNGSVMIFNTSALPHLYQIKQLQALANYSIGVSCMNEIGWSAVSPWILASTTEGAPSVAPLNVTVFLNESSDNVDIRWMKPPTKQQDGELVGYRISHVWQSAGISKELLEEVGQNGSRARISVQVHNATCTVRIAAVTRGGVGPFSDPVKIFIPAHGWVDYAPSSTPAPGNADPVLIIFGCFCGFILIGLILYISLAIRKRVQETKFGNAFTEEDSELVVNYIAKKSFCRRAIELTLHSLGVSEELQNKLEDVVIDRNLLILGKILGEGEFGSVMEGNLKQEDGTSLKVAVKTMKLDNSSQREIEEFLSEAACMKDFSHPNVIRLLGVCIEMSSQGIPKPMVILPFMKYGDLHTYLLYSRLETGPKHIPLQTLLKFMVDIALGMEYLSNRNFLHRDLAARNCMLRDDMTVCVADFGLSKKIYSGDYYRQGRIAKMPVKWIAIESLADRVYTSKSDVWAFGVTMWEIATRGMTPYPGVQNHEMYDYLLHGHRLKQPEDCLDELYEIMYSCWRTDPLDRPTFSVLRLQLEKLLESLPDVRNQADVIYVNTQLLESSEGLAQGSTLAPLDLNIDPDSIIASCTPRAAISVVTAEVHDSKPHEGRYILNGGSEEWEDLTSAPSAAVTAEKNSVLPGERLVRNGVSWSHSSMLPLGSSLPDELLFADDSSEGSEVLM

Row | SMILES | pIC50 [1] | pIC50 [2] | pIC50 [3]
1 | CCc1nc(C)c(-c2ccc(F)cc2C)c(O)c1C(=O)Nc1ccc(Oc2ccnc3cc(OC)c(OC)nc23)cc1 [Compound 203, N-[4-[(6,7-Dimethoxy-1,5-naphthyridin-4-yl)oxy]phenyl]-2-ethyl-5-(4-fluoro-2-methylphenyl)-4-hydroxy-6-methylpyridine-3-carboxamide] | > 7.00 | > 7.00 | > 7.00
2 | COc1cnc2c(Oc3ccc(NC(=O)c4cn(C)c(CO)c(-c5ccc(F)cc5)c4=O)cc3)ccnc2c1 [Compound 223, 5-(4-Fluorophenyl)-6-(hydroxymethyl)-N-[4-[(7-methoxy-1,5-naphthyridin-4-yl)oxy]phenyl]-1-methyl-4-oxopyridine-3-carboxamide] | > 7.00 | < 6.52 | > 7.00
3 | COCCOc1nc2c(Oc3ccc(NC(=O)c4n[nH]c(C)c(-c5ccc(F)cc5C)c4=O)cc3F)ccnc2cc1OC [Compound 252, N-[3-Fluoro-4-[[7-methoxy-6-(2-methoxyethoxy)-1,5-naphthyridin-4-yl]oxy]phenyl]-5-(4-fluoro-2-methylphenyl)-6-methyl-4-oxo-1H-pyridazine-3-carboxamide] | > 7.00 | 6.52 to 7.00 | > 7.00
4 | COc1cnc2c(Oc3ccc(NC(=O)c4nnc(C)c(-c5ccc(F)cc5C)c4O)cc3F)ccnc2c1 (single isomer, unassigned) [Compound 249C, N-[3-Fluoro-4-[(7-methoxy-1,5-naphthyridin-4-yl)oxy]phenyl]-5-(4-fluoro-2-methylphenyl)-4-hydroxy-6-methylpyridazine-3-carboxamide] | > 7.00 | < 6.52 | > 7.00
5 | COc1ccc2nccc(Oc3ccc(NC(=O)c4c(C)ncn(-c5ccc(F)cc5)c4=O)cc3F)c2n1 [Compound 234, N-[3-Fluoro-4-[(6-methoxy-1,5-naphthyridin-4-yl)oxy]phenyl]-1-(4-fluorophenyl)-4-methyl-6-oxopyrimidine-5-carboxamide] | > 7.00 | < 6.52 | > 7.00
6 | COCCOc1nc2c(Oc3ccc(NC(=O)c4cn(C)c(C)c(-c5ccc(F)cc5)c4=O)cc3F)ccnc2cc1OC [Compound 198, N-[3-Fluoro-4-[[7-methoxy-6-(2-methoxyethoxy)-1,5-naphthyridin-4-yl]oxy]phenyl]-5-(4-fluorophenyl)-1,6-dimethyl-4-oxopyridine-3-carboxamide] | > 7.00 | 6.52 to 7.00 | > 7.00
7 | COc1cnc2c(Oc3ccc(NC(=O)c4nnc(C)c(-c5ccc(F)cc5C)c4O)cc3F)ccnc2c1 (single isomer, unassigned) [Compound 249B, N-[3-Fluoro-4-[(7-methoxy-1,5-naphthyridin-4-yl)oxy]phenyl]-5-(4-fluoro-2-methylphenyl)-4-hydroxy-6-methylpyridazine-3-carboxamide] | > 7.00 | < 6.52 | > 7.00
8 | COCCOc1nc2c(Oc3ccc(NC(=O)c4cn(C)c(CO)c(-c5ccc(F)cc5)c4=O)cc3F)ccnc2cc1OC [Compound 228, N-[3-Fluoro-4-[[7-methoxy-6-(2-methoxyethoxy)-1,5-naphthyridin-4-yl]oxy]phenyl]-5-(4-fluorophenyl)-6-(hydroxymethyl)-1-methyl-4-oxopyridine-3-carboxamide] | > 7.00 | 6.52 to 7.00 | > 7.00
9 | COc1cnc2c(Oc3ccc(NC(=O)c4n[nH]c(C)c(-c5ccc(F)cc5C)c4=O)cc3)ccnc2c1 [Compound 248, 5-(4-Fluoro-2-methylphenyl)-N-[4-[(7-methoxy-1,5-naphthyridin-4-yl)oxy]phenyl]-6-methyl-4-oxo-1H-pyridazine-3-carboxamide] | > 7.00 | < 6.52 | > 7.00
10 | COCc1nc(C)c(-c2ccc(F)cc2C)c(O)c1C(=O)Nc1ccc(Oc2ccnc3cc(OC)c(OC)nc23)c(F)c1 [Compound 191, N-[4-[(6,7-Dimethoxy-1,5-naphthyridin-4-yl)oxy]-3-fluorophenyl]-5-(4-fluoro-2-methylphenyl)-4-hydroxy-2-(methoxymethyl)-6-methylpyridine-3-carboxamide] | > 7.00 | > 7.00 | > 7.00
11 | COc1ccc(-c2c(C)n(C(C)C)cc(C(=O)Nc3ccc(Oc4ccnc5cc(OC)c(OC)nc45)c(F)c3)c2=O)cc1 [Compound 31, N-[4-[(6,7-dimethoxy-1,5-naphthyridin-4-yl)oxy]-3-fluorophenyl]-5-(4-methoxyphenyl)-6-methyl-4-oxo-1-propan-2-ylpyridine-3-carboxamide hydrochloride] | > 7.00 | > 7.00 | 6.52 to 7.00
12 | COc1cc2nccc(Oc3ccc(NC(=O)c4ccc(C)n(-c5ccc(F)cc5)c4=O)cc3)c2nc1OC [Compound 229, N-[4-[(6,7-Dimethoxy-1,5-naphthyridin-4-yl)oxy]phenyl]-1-(4-fluorophenyl)-6-methyl-2-oxopyridine-3-carboxamide] | > 7.00 | > 7.00 | > 7.00
13 | COCc1nc(C)c(-c2ccc(F)cc2)c(O)c1C(=O)Nc1ccc(Oc2ccnc3cc(OC)cnc23)cc1 [Compound 185, 5-(4-Fluorophenyl)-4-hydroxy-2-(methoxymethyl)-N-[4-[(7-methoxy-1,5-naphthyridin-4-yl)oxy]phenyl]-6-methylpyridine-3-carboxamide] | > 7.00 | > 7.00 | > 7.00
14 | COc1cc2nccc(Oc3ccc(NC(=O)c4c(C)ncc(-c5ccc(F)cc5)c4O)cc3F)c2nc1OC [Compound 237, N-[4-[(6,7-Dimethoxy-1,5-naphthyridin-4-yl)oxy]-3-fluorophenyl]-5-(4-fluorophenyl)-4-hydroxy-2-methylpyridine-3-carboxamide] | > 7.00 | > 7.00 | > 7.00
15 | COc1cnc2c(Oc3ccc(NC(=O)c4cnc(CO)c(-c5ccc(F)cc5)c4O)cc3)ccnc2c1 [Compound 218, 5-(4-Fluorophenyl)-4-hydroxy-6-(hydroxymethyl)-N-[4-[(7-methoxy-1,5-naphthyridin-4-yl)oxy]phenyl]pyridine-3-carboxamide] | > 7.00 | 6.52 to 7.00 | > 7.00
16 | COCCOc1nc2c(Oc3ccc(NC(=O)c4c(COC)nc(C)c(-c5ccc(F)cc5C)c4O)cc3F)ccnc2cc1OC [Compound 201, N-[3-Fluoro-4-[[7-methoxy-6-(2-methoxyethoxy)-1,5-naphthyridin-4-yl]oxy]phenyl]-5-(4-fluoro-2-methylphenyl)-4-hydroxy-2-(methoxymethyl)-6-methylpyridine-3-carboxamide] | > 7.00 | 6.52 to 7.00 | > 7.00
17 | COc1cc2nccc(Oc3ccc(NC(=O)c4cn(C(C)C)c(C)c(-c5ccc(F)cc5C)c4=O)cc3F)c2nc1OC [Compound 32, N-[4-[(6,7-Dimethoxy-1,5-naphthyridin-4-yl)oxy]-3-fluorophenyl]-5-(4-fluoro-2-methylphenyl)-6-methyl-4-oxo-1-propan-2-ylpyridine-3-carboxamide hydrochloride] | > 7.00 | 6.52 to 7.00 | > 7.00
18 | COc1ccc2nccc(Oc3ccc(NC(=O)c4c(C)ncc(-c5ccc(F)cc5)c4O)cc3F)c2n1 [Compound 242, N-[3-Fluoro-4-[(6-methoxy-1,5-naphthyridin-4-yl)oxy]phenyl]-5-(4-fluorophenyl)-4-hydroxy-2-methylpyridine-3-carboxamide] | > 7.00 | > 7.00 | > 7.00
19 | COc1cnc2c(Oc3ccc(NC(=O)c4n[nH]c(C)c(-c5ccc(F)cc5)c4=O)cc3F)ccnc2c1 [Compound 246, N-[3-Fluoro-4-[(7-methoxy-1,5-naphthyridin-4-yl)oxy]phenyl]-5-(4-fluorophenyl)-6-methyl-4-oxo-1H-pyridazine-3-carboxamide] | > 7.00 | > 7.00 | > 7.00
20 | COc1cc2nccc(Oc3ccc(NC(=O)c4cn(C)cc(-c5cccc(F)c5)c4=O)cc3F)c2nc1OC [Compound 35, N-[4-[(6,7-Dimethoxy-1,5-naphthyridin-4-yl)oxy]-3-fluorophenyl]-5-(3-fluorophenyl)-1-methyl-4-oxopyridine-3-carboxamide hydrochloride] | > 7.00 | > 7.00 | > 7.00
21 | COc1cc2nccc(Oc3ccc(NC(=O)c4c(C)ncc(-c5ccc(F)cc5)c4O)cc3)c2nc1OC [Compound 235, N-[4-[(6,7-Dimethoxy-1,5-naphthyridin-4-yl)oxy]phenyl]-5-(4-fluorophenyl)-4-hydroxy-2-methylpyridine-3-carboxamide] | > 7.00 | > 7.00 | > 7.00
22 | COc1cnc2c(Oc3ccc(NC(=O)c4nn(C)c(C)c(-c5ccc(F)cc5)c4=O)cc3F)ccnc2c1 [Compound 250, N-[3-Fluoro-4-[(7-methoxy-1,5-naphthyridin-4-yl)oxy]phenyl]-5-(4-fluorophenyl)-1,6-dimethyl-4-oxopyridazine-3-carboxamide] | > 7.00 | < 6.52 | > 7.00
